Laboratory results from patent US20250214991A1 (Oncopia Therapeutics, Inc. d/b/a/ SK Life Science Labs, priority 2022, published 2025).

Tests used:
[1] = biological target: T1, IKZF2 (Homo sapiens (Human), UniProt Q96SW2+Q9UKS7); experiment: In vitro IKZF2 HiBit Assay (HEK293T Flp-in-HiBiT cells); format: cell-based; settings: HEK293T Flp-in-HiBiT cells, 6 hrs incubation; for DC50: read-out: IKZF2 HiBit DC50; for Dmax: HEK-293T, read-out: IKZF2 HiBit Dmax (%)
In short: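 HEK293T Flp-in cells carrying an endogenous N-terminal HiBiT tag on IKZF2 were exposed to compound for 6 h at 0.1% DMSO. The dilution series was 11 doses at 3-fold, diluted from 1 mM. Nano-Glo HiBiT lytic luminescence, normalized to DMSO, gave DC50 for 50% degradation and Dmax across the concentration range, both reported in letter bins.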

[2] = biological target: IKZF1 (Homo sapiens (Human), UniProt Q13422+Q96SW2); experiment: In vitro IKZF1 HiBit Assay (HEK293T Flp-in-HiBiT-IKZF1 stable cell line); format: cell-based; settings: HEK293T Flp-in-HiBiT-IKZF1 stable cell line, 6 hrs incubation; for DC50: read-out: IKZF1 HiBit DC50; for Dmax: HEK-293T, read-out: IKZF1 HiBit Dmax (%)
In short: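 HEK293T Flp-in cells carrying N-terminal HiBiT-tagged IKZF1 were exposed to compound (0.1% DMSO) for 6 h at 3000 cells/well. HiBiT luminescence was read after lytic LgBiT detection. DC50 and Dmax were taken from DMSO-normalized dose-response curves.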

[3] = biological target: CRBN/DDB1 (Homo sapiens (Human), UniProt Q96SW2); experiment: IC50 measurements for binding to CRBN/DDB1 (HTRF); settings: His tagged CRBN+DDB, Cy5-labeled Thalidomide probe, one hour
In short: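 HTRF competition binding with 2 nM His-tagged CRBN-DDB1 complex, 60 nM Cy5-thalidomide probe and 0.4 nM anti-His Tb cryptate in 50 mM HEPES pH 7.5, 1 mM TCEP, 0.01% Brij-35, 50 mM NaCl, 0.1% BSA. Read after 1 h at room temperature; IC50 from four-parameter dose-response fit.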

[4] = biological target: T1, IKZF2; experiment: In vitro IKZF2 FACS Assay in Jurkat cells; format: cell-based; settings: 24 hrs; for DC50: half maximal degradation concentration; for Dmax: maximal degradation percentage
Protocol: In vitro IKZF2 FACS Assay
DC50, A: <1 nM; B: 1-10 nM; C: 10-100 nM; D: 100-1000 nM; E: >1000 nM. Dmax, A: >80%; B: 60-80%; C: 40-60%; D: 20-40%; E: <20%.

T1 sequence (Q9UKS7 whole entry): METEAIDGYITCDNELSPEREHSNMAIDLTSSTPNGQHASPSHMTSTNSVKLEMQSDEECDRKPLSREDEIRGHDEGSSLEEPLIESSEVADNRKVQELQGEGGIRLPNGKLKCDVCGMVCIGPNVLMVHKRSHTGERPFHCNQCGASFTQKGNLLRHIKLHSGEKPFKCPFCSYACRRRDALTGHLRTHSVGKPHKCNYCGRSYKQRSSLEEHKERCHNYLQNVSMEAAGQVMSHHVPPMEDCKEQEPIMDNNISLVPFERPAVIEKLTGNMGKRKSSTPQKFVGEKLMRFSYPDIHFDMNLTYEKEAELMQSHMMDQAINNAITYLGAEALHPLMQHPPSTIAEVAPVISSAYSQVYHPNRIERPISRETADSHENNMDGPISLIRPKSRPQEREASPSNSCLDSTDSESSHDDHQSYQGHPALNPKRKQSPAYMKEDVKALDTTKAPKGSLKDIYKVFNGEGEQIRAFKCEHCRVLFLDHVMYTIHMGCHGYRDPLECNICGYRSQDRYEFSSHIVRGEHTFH
T1 sequence (Q96SW2 whole entry): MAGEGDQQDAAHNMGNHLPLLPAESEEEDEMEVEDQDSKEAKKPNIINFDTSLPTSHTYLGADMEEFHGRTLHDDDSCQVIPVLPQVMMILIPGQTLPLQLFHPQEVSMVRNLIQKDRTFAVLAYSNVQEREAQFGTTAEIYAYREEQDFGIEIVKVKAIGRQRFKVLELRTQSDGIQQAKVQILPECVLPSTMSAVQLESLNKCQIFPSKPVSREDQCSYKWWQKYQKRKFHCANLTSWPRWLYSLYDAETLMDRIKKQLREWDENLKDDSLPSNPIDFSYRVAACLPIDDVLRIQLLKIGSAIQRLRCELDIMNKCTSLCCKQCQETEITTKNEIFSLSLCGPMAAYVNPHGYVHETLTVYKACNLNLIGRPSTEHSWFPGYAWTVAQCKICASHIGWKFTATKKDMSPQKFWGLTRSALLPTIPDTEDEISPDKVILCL
T1 sequence (Q16531 2-1140 partner): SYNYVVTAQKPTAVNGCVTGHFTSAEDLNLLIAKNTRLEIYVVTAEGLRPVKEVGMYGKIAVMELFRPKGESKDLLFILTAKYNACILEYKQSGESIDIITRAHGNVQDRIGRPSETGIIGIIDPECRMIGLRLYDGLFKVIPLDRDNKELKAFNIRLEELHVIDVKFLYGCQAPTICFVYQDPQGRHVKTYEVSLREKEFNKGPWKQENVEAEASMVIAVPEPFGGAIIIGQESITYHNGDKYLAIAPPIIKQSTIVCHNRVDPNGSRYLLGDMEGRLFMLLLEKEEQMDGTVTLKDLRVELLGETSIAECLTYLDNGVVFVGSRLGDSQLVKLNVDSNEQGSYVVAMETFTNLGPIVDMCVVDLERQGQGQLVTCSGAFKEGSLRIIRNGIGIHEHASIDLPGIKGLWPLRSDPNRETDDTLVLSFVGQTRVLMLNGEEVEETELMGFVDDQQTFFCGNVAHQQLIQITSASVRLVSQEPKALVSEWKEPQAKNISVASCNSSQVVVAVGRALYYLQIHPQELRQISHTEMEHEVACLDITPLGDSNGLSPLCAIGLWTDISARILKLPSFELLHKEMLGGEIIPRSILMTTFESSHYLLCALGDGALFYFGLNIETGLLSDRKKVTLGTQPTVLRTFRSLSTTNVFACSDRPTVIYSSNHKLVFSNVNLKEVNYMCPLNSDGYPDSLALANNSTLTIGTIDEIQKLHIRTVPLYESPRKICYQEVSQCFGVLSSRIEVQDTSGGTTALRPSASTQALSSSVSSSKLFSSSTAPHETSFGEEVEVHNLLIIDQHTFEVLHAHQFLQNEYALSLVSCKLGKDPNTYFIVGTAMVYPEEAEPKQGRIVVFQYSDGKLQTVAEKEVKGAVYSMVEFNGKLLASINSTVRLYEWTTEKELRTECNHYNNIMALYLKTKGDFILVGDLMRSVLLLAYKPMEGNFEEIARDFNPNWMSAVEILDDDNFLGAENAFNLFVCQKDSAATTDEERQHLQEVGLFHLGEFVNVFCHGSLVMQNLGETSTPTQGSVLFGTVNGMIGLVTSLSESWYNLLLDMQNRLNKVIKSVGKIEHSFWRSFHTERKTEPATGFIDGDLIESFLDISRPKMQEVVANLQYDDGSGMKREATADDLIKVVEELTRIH
Sequence of CRBN/DDB1 (Q96SW2 whole entry, species assumed): as the sequence (Q96SW2 whole entry) above
Sequence of CRBN/DDB1 (Q16531 whole entry partner, species assumed): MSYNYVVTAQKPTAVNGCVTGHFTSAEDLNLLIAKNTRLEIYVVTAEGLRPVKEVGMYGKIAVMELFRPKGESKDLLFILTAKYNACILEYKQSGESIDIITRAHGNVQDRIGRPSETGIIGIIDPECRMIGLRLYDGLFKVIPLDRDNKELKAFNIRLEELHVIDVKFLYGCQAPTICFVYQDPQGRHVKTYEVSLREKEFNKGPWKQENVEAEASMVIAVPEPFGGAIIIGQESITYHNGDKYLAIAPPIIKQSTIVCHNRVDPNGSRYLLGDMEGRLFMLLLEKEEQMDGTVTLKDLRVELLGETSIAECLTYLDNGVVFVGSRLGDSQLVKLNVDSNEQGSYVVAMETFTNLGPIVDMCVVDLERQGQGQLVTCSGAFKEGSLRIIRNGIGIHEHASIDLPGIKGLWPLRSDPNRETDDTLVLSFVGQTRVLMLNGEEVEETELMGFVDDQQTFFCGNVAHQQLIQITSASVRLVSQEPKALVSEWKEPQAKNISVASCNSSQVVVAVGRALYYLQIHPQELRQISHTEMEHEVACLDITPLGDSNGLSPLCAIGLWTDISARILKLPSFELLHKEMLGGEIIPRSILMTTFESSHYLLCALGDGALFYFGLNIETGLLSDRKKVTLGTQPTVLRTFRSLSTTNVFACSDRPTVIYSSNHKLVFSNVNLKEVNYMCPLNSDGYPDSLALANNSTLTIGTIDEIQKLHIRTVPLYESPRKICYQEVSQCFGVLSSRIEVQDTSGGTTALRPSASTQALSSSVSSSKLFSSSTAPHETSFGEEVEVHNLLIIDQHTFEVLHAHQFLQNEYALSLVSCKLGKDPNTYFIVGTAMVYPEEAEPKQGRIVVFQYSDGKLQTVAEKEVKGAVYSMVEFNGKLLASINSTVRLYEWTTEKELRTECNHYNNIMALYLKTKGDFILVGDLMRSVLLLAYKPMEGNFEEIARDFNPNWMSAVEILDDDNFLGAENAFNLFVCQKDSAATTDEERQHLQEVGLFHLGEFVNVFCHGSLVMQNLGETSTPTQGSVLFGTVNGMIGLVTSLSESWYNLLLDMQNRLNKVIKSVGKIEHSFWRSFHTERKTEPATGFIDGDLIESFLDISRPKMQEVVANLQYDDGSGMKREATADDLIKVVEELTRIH
Sequence of IKZF1 (Q13422 whole entry): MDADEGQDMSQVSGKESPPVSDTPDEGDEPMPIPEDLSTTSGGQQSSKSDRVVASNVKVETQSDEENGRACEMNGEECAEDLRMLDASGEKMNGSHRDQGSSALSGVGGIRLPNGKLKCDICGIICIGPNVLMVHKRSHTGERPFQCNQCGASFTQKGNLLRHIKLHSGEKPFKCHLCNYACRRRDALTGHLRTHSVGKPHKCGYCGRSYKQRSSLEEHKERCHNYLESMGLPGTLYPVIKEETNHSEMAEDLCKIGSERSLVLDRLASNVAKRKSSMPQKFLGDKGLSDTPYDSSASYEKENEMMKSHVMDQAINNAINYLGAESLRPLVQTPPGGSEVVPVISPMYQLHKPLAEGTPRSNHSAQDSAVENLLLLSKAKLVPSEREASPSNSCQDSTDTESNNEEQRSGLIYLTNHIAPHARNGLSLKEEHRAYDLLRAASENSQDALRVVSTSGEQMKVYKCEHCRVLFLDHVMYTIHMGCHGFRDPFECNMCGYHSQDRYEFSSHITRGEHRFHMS
Sequence of IKZF1 (Q96SW2 whole entry): as the sequence (Q96SW2 whole entry) above
Sequence of IKZF1 (Q16531 2-1140 partner): as the sequence (Q16531 2-1140 partner) above

Row | SMILES | DC50 [1] [nM] | Dmax [1] [%] | DC50 [2] [nM] | Dmax [2] [%] | IC50 [3] [nM] | DC50 [4] [nM] | Dmax [4] [%]
1 | O=C1CCC(N2Cc3cc(-c4cc(CN5CC6COCC6C5)c5ccn(C6COC6)c5n4)ccc3C2=O)C(=O)N1 (centres unmarked) [Example 186, 3-(5-(1-(oxetan-3-yl)-4-((tetrahydro-1H-furo[3,4-c]pyrrol-5 (3H)-yl)methyl)-1H-pyrrolo[2,3-b]pyridin-6-yl)-1-oxoisoindolin-2-yl) piperidine-2,6-dione] | 1 to 10 | > 80 | > 10000 | < 20 | 100 to 500 | 1 to 10 | > 80
2 | O=C1CCC(N2Cc3cc(-c4cc(CN5CCC(F)CC5)c5ccn(C6COC6)c5n4)ccc3C2=O)C(=O)N1 (centres unmarked) [Example 187, 3-(5-(4-((4-fluoropiperidin-1-yl)methyl)-1-(oxetan-3-yl)-1H-pyrrolo[2,3-b]pyridin-6-yl)-1-oxoisoindolin-2-yl) piperidine-2,6-dione] | 1 to 10 | > 80 | > 10000 | < 20 | 100 to 500 | 1 to 10 | > 80
3 | COC1CCN(Cc2cc(-c3ccc4c(c3)CN(C3CCC(=O)NC3=O)C4=O)nc3c2ccn3C2COC2)CC1 (centres unmarked) [Example 189, 3-(5-(4-((4-methoxypiperidin-1-yl)methyl)-1-(oxetan-3-yl)-1H-pyrrolo[2,3-b]pyridin-6-yl)-1-oxoisoindolin-2-yl) piperidine-2,6-dione] | 1 to 10 | > 80 | 10 to 100 | 20 to 40 | 100 to 500 | 1 to 10 | > 80
4 | CC(C)Nc1n[nH]c2c(CN3CCCC3)cc(-c3ccc4c(c3)CN(C3CCC(=O)NC3=O)C4=O)nc12 (centres unmarked) [Example 193, 3-(5-(3-(isopropylamino)-7-(pyrrolidin-1-ylmethyl)-1H-pyrazolo[4,3-b]pyridin-5-yl)-1-oxoisoindolin-2-yl) piperidine-2,6-dione] | 1 to 10 | > 80 | 10 to 100 | 20 to 40 | 1000 to 5000 | 1 to 10 | 40 to 60
5 | Nc1n[nH]c2c(CN3CCC(O)CC3)cc(-c3ccc4c(c3)CN(C3CCC(=O)NC3=O)C4=O)nc12 (centres unmarked) [Example 205, 3-(5-(3-amino-7-((4-hydroxypiperidin-1-yl)methyl)-1H-pyrazolo[4,3-b]pyridin-5-yl)-1-oxoisoindolin-2-yl) piperidine-2,6-dione] | 10 to 100 | 60 to 80 | 1000 to 10000 | 20 to 40 | 500 to 1000 | 100 to 1000 | 60 to 80
6 | O=C1CCC(N2Cc3cc(-c4cc(CN5CCCC5)c5ncn(C6CCC6)c5n4)ccc3C2=O)C(=O)N1 (centres unmarked) [Example 209, 3-(5-(3-cyclobutyl-7-(pyrrolidin-1-ylmethyl)-3H-imidazo[4,5-b]pyridin-5-yl)-1-oxoisoindolin-2-yl) piperidine-2,6-dione] | 1 to 10 | > 80 | > 10000 | < 20 | 1000 to 5000 | 10 to 100 | > 80
7 | Nc1nn(C2CC2)c2c(CN3CCCC3)cc(-c3ccc4c(c3)CN(C3CCC(=O)NC3=O)C4=O)nc12 (centres unmarked) [Example 210, 3-(5-(3-amino-1-cyclopropyl-7-(pyrrolidin-1-ylmethyl)-1H-pyrazolo[4,3-b]pyridin-5-yl)-1-oxoisoindolin-2-yl) piperidine-2,6-dione] | 1 to 10 | > 80 | 100 to 1000 | 40 to 60 | 500 to 1000 | 1 to 10 | > 80
8 | O=C1CCC(N2Cc3cc(-c4cc(CN5CCCC5)c5ncn(C6COC6)c5n4)ccc3C2=O)C(=O)N1 (centres unmarked) [Example 211, 3-(5-(3-(oxetan-3-yl)-7-(pyrrolidin-1-ylmethyl)-3H-imidazo[4,5-b]pyridin-5-yl)-1-oxoisoindolin-2-yl) piperidine-2,6-dione] | 10 to 100 | 60 to 80 | > 10000 | < 20 | 500 to 1000 | 10 to 100 | 60 to 80
9 | Nc1n[nH]c2c(CN3CCC(F)CC3)cc(-c3ccc4c(c3)CN(C3CCC(=O)NC3=O)C4=O)nc12 (centres unmarked) [Example 212, 3-(5-(3-amino-7-((4-fluoropiperidin-1-yl)methyl)-1H-pyrazolo[4,3-b]pyridin-5-yl)-1-oxoisoindolin-2-yl) piperidine-2,6-dione] | 1 to 10 | 60 to 80 | 1 to 10 | 20 to 40 | < 100 | 10 to 100 | > 80
10 | Nc1n[nH]c2c(CN3CC4COCC(C4)C3)cc(-c3ccc4c(c3)CN(C3CCC(=O)NC3=O)C4=O)nc12 (centres unmarked) [Example 215, 3-(5-(7-((3-oxa-7-azabicyclo[3.3.1]nonan-7-yl)methyl)-3-amino-1H-pyrazolo[4,3-b]pyridin-5-yl)-1-oxoisoindolin-2-yl) piperidine-2,6-dione] | 10 to 100 | > 80 | 100 to 1000 | 20 to 40 | 100 to 500 | 10 to 100 | > 80
11 | Nc1n[nH]c2c(CN3CCC4(CC3)COC4)cc(-c3ccc4c(c3)CN(C3CCC(=O)NC3=O)C4=O)nc12 (centres unmarked) [Example 216, 3-(5-(7-((2-oxa-7-azaspiro[3.5]nonan-7-yl)methyl)-3-amino-1H-pyrazolo[4,3-b]pyridin-5-yl)-1-oxoisoindolin-2-yl) piperidine-2,6-dione] | 10 to 100 | 60 to 80 | 100 to 1000 | 20 to 40 | 1000 to 5000 | 100 to 1000 | 60 to 80
12 | O=C1CCC(N2Cc3cc(-c4nc(CN5CCCC5)c5ccn(C6COC6)c5n4)ccc3C2=O)C(=O)N1 (centres unmarked) [Example 218, 3-(5-(7-(oxetan-3-yl)-4-(pyrrolidin-1-ylmethyl)-7H-pyrrolo[2,3-d]pyrimidin-2-yl)-1-oxoisoindolin-2-yl) piperidine-2,6-dione] | 1 to 10 | 60 to 80 | 100 to 1000 | 20 to 40 | 500 to 1000 | 10 to 100 | 60 to 80
13 | O=C1CCC(N2Cc3cc(-c4nc5[nH]ccc5c(CN5CCCC5)c4Cl)ccc3C2=O)C(=O)N1 (centres unmarked) [Example 221, 3-(5-(5-chloro-4-(pyrrolidin-1-ylmethyl)-1H-pyrrolo[2,3-b]pyridin-6-yl)-1-oxoisoindolin-2-yl) piperidine-2,6-dione] | 1 to 10 | > 80 | > 10000 | < 20 | 100 to 500 | 1 to 10 | > 80
14 | O=C1CCC(N2Cc3c(ccc(-c4cc(CN5CCCC5)c5ccn(C6CS(=O)(=O)C6)c5n4)c3F)C2=O)C(=O)N1 (centres unmarked) [Example 222, 3-(5-(1-(1,1-dioxidothietan-3-yl)-4-(pyrrolidin-1-ylmethyl)-1H-pyrrolo[2,3-b]pyridin-6-yl)-4-fluoro-1-oxoisoindolin-2-yl) piperidine-2,6-dione] | 1 to 10 | > 80 | 10 to 100 | 20 to 40 | 100 to 500 | 1 to 10 | > 80
15 | O=C1CCC(N2Cc3c(ccc(-c4cc(CN5CCCC5)c5ccn(C6COC6)c5n4)c3F)C2=O)C(=O)N1 (centres unmarked) [Example 223, 3-(4-fluoro-5-(1-(oxetan-3-yl)-4-(pyrrolidin-1-ylmethyl)-1H-pyrrolo[2,3-b]pyridin-6-yl)-1-oxoisoindolin-2-yl) piperidine-2,6-dione] | < 1 | 60 to 80 | 1 to 10 | 20 to 40 | 100 to 500 | 1 to 10 | > 80
16 | CC(C)Nc1n[nH]c2c(CN3CCCC3)cc(-c3ccc4c(c3F)CN(C3CCC(=O)NC3=O)C4=O)nc12 (centres unmarked) [Example 226, 3-(4-fluoro-5-(3-(isopropylamino)-7-(pyrrolidin-1-ylmethyl)-1H-pyrazolo[4,3-b]pyridin-5-yl)-1-oxoisoindolin-2-yl) piperidine-2,6-dione] | < 1 | > 80 | > 10000 | < 20 | 100 to 500 | 1 to 10 | > 80
17 | CC(C)Nc1n[nH]c2c(CN3CCCC3)cc(-c3ccc4c(c3Cl)CN(C3CCC(=O)NC3=O)C4=O)nc12 (centres unmarked) [Example 227, 3-(4-chloro-5-(3-(isopropylamino)-7-(pyrrolidin-1-ylmethyl)-1H-pyrazolo[4,3-b]pyridin-5-yl)-1-oxoisoindolin-2-yl) piperidine-2,6-dione] | 1 to 10 | 60 to 80 | > 10000 | < 20 | 500 to 1000 | 10 to 100 | > 80
